According to PubChem BioAssay AID1845206 (Molecular Pharmacology Branch, DTP, NCI, 2023):
pIC50: −log10 of the molar value. Calls of active or inactive are those of the source. The calls were made as follows: active = viability on the fitted dose curve at most 10% of control; inactive = the rest.

System: NCI-H1618 multicellular tumor spheroid viability
Assay: Anticancer human tumor NCI-H1618 cell line growth inhibition;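 also: spheroids exposed to agents for 7 days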
Details: for pIC50: curve of first compound; for viability, T/C: stronger effect = lower value
In short: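 Complex spheroids of malignant cells with endothelial cells and mesenchymal stem cells; agents alone or combined, from near clinical Cmax (or 10 microM if unknown) down in half-log steps, 0.25% DMSO final.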

[1] = second compound 1 µM, first compound 0.00949 µM
[2] = second compound 1 µM, first compound 0.03 µM
[3] = second compound 1 µM, first compound 0.0949 µM
[4] = second compound 1 µM, first compound 0.3 µM
[5] = second compound 1 µM, first compound 0.949 µM
[6] = second compound 1 µM, first compound 3 µM
[7] = second compound 3.16 µM, first compound 0.00949 µM
[8] = second compound 3.16 µM, first compound 0.03 µM
[9] = second compound 3.16 µM, first compound 0.0949 µM
[10] = second compound 3.16 µM, first compound 0.3 µM
[11] = second compound 3.16 µM, first compound 0.949 µM
[12] = second compound 3.16 µM, first compound 3 µM
[13] = second compound 10 µM, first compound 0.00949 µM
[14] = second compound 10 µM, first compound 0.03 µM
[15] = second compound 10 µM, first compound 0.0949 µM
[16] = second compound 10 µM, first compound 0.3 µM
[17] = second compound 10 µM, first compound 0.949 µM
[18] = second compound 10 µM, first compound 3 µM
[19] = second compound 31.6 µM, first compound 0.00949 µM
[20] = second compound 31.6 µM, first compound 0.03 µM
[21] = second compound 31.6 µM, first compound 0.0949 µM
[22] = second compound 31.6 µM, first compound 0.3 µM
[23] = second compound 31.6 µM, first compound 0.949 µM
[24] = second compound 31.6 µM, first compound 3 µM
[25] = second compound 100 µM, first compound 0.00949 µM
[26] = second compound 100 µM, first compound 0.03 µM
[27] = second compound 100 µM, first compound 0.0949 µM
[28] = second compound 100 µM, first compound 0.3 µM
[29] = second compound 100 µM, first compound 0.949 µM
[30] = second compound 100 µM, first compound 3 µM
[31] = second compound 1 µM, first compound 0.0316 µM
[32] = second compound 1 µM, first compound 0.1 µM
[33] = second compound 1 µM, first compound 0.316 µM
[34] = second compound 1 µM, first compound 1 µM
[35] = second compound 1 µM, first compound 3.16 µM
[36] = second compound 1 µM, first compound 10 µM
[37] = second compound 3.16 µM, first compound 0.0316 µM
[38] = second compound 3.16 µM, first compound 0.1 µM
[39] = second compound 3.16 µM, first compound 0.316 µM
[40] = second compound 3.16 µM, first compound 1 µM
[41] = second compound 3.16 µM, first compound 3.16 µM
[42] = second compound 3.16 µM, first compound 10 µM
[43] = second compound 10 µM, first compound 0.0316 µM
[44] = second compound 10 µM, first compound 0.1 µM
[45] = second compound 10 µM, first compound 0.316 µM
[46] = second compound 10 µM, first compound 1 µM
[47] = second compound 10 µM, first compound 3.16 µM
[48] = second compound 10 µM, first compound 10 µM
[49] = second compound 31.6 µM, first compound 0.0316 µM
[50] = second compound 31.6 µM, first compound 0.1 µM
[51] = second compound 31.6 µM, first compound 0.316 µM
[52] = second compound 31.6 µM, first compound 1 µM
[53] = second compound 31.6 µM, first compound 3.16 µM
[54] = second compound 31.6 µM, first compound 10 µM
[55] = second compound 100 µM, first compound 0.0316 µM
[56] = second compound 100 µM, first compound 0.1 µM
[57] = second compound 100 µM, first compound 0.316 µM
[58] = second compound 100 µM, first compound 1 µM
[59] = second compound 100 µM, first compound 3.16 µM
[60] = second compound 100 µM, first compound 10 µM

## CNCc1ccc(-c2cc(-c3nc(-c4ccc(S(=O)(=O)C(C)C)cc4)cnc3N)on2)cc1 + Cn1nnc2c(C(N)=O)ncn2c1=O
Second compound 1 µM
  pIC50: 7.24
Second compound 3.16 µM
  pIC50: > 8.02
Second compound 10 µM
  pIC50: > 8.02
Second compound 31.6 µM
  pIC50: > 8.02
Second compound 100 µM
  pIC50: > 8.02
[1]
  viability, T/C: 87.1%
[2]
  viability, T/C: 89.3%
[3]
  viability, T/C: 20%
[4]
  viability, T/C: 9.42%
[5]
  viability, T/C: 1.93%
[6]
  viability, T/C: 0.47%
[7]
  viability, T/C: 11.2%
[8]
  viability, T/C: 23.2%
[9]
  viability, T/C: 21.4%
[10]
  viability, T/C: 2.21%
[11]
  viability, T/C: 1.04%
[12]
  viability, T/C: 0.58%
[13]
  viability, T/C: 8.64%
[14]
  viability, T/C: 4.75%
[15]
  viability, T/C: 3.76%
[16]
  viability, T/C: 1.59%
[17]
  viability, T/C: 0.8%
[18]
  viability, T/C: 16.5%
[19]
  viability, T/C: 10.5%
[20]
  viability, T/C: 14.6%
[21]
  viability, T/C: 19.2%
[22]
  viability, T/C: 1.44%
[23]
  viability, T/C: 1.18%
[24]
  viability, T/C: 18.5%
[25]
  outcome: inactive
[26]
  viability, T/C: 24.1%
[27]
  viability, T/C: 13.9%
[28]
  viability, T/C: 1.69%
[29]
  viability, T/C: 19.3%
[30]
  viability, T/C: 0.46%

## Cc1cc(C)c(CNC(=O)c2cc(-c3ccc(CN4CCOCC4)cc3)cc3c2cnn3C2CCCC2)c(=O)[nH]1 + Cn1nnc2c(C(N)=O)ncn2c1=O
Second compound 1 µM
  pIC50: < 5.00
Second compound 3.16 µM
  pIC50: > 7.50
Second compound 10 µM
  pIC50: > 7.50
Second compound 31.6 µM
  pIC50: > 7.50
Second compound 100 µM
  pIC50: > 7.50
[31]
  viability, T/C: 88.9%
[32]
  viability, T/C: 82.9%
[33]
  viability, T/C: 89.8%
[34]
  outcome: inactive
[35]
  viability, T/C: 82.3%
[36]
  viability, T/C: 78.8%
[37]
  viability, T/C: 24.3%
[38]
  viability, T/C: 13.1%
[39]
  viability, T/C: 16.6%
[40]
  viability, T/C: 22%
[41]
  viability, T/C: 14.7%
[42]
  viability, T/C: 19.3%
[43]
  viability, T/C: 4.25%
[44]
  viability, T/C: 19.8%
[45]
  viability, T/C: 10.5%
[46]
  viability, T/C: 3.64%
[47]
  viability, T/C: 5.17%
[48]
  viability, T/C: 4.06%
[49]
  viability, T/C: 18.2%
[50]
  viability, T/C: 20.3%
[51]
  viability, T/C: 20.4%
[52]
  viability, T/C: 5.16%
[53]
  viability, T/C: 13.7%
[54]
  viability, T/C: 12%
[55]
  viability, T/C: 34.9%
[56]
  viability, T/C: 63.6%
[57]
  viability, T/C: 52.6%
[58]
  viability, T/C: 46.8%
[59]
  viability, T/C: 66.2%
[60]
  viability, T/C: 44.2%

## Cc1sc2c(c1C)C(c1ccc(Cl)cc1)=NC(CC(=O)Nc1ccc(O)cc1)c1nnc(C)n1-2 (stereo not given) + Cn1nnc2c(C(N)=O)ncn2c1=O
Second compound 1 µM
  pIC50: 6.11
Second compound 3.16 µM
  pIC50: > 8.02
Second compound 10 µM
  pIC50: > 8.02
Second compound 31.6 µM
  pIC50: > 8.02
Second compound 100 µM
  pIC50: 6.84
[1]
  viability, T/C: 97.7%
[2]
  viability, T/C: 20.7%
[3]
  viability, T/C: 90%
[4]
  viability, T/C: 72%
[5]
  viability, T/C: 45.9%
[6]
  viability, T/C: 20.5%
[7]
  viability, T/C: 19.5%
[8]
  viability, T/C: 35.3%
[9]
  viability, T/C: 49.1%
[10]
  viability, T/C: 22.8%
[11]
  viability, T/C: 5.18%
[12]
  viability, T/C: 5.41%
[13]
  viability, T/C: 6.33%
[14]
  viability, T/C: 21.3%
[15]
  viability, T/C: 5.98%
[16]
  viability, T/C: 18.9%
[17]
  viability, T/C: 2.4%
[18]
  viability, T/C: 1.94%
[19]
  viability, T/C: 7.34%
[20]
  viability, T/C: 9.11%
[21]
  viability, T/C: 17.6%
[22]
  viability, T/C: 4.34%
[23]
  viability, T/C: 1.89%
[24]
  viability, T/C: 1.29%
[25]
  viability, T/C: 53.6%
[26]
  viability, T/C: 78.7%
[27]
  viability, T/C: 70.3%
[28]
  viability, T/C: 20.8%
[29]
  viability, T/C: 6.16%
[30]
  viability, T/C: 0.99%

## [2H]c1nc(C)nc([2H])c1-c1cc(NC[C@@H](C)c2cccc3c(C(=O)NC)ccnc23)ncn1 + Cn1nnc2c(C(N)=O)ncn2c1=O
Second compound 1 µM
  pIC50: < 5.00
Second compound 3.16 µM
  pIC50: > 7.50
Second compound 10 µM
  pIC50: > 7.50
Second compound 31.6 µM
  pIC50: > 7.50
Second compound 100 µM
  pIC50: > 7.50
[31]
  viability, T/C: 91.3%
[32]
  viability, T/C: 91.9%
[33]
  viability, T/C: 85.3%
[34]
  viability, T/C: 85.3%
[35]
  viability, T/C: 89.2%
[36]
  viability, T/C: 89.3%
[37]
  viability, T/C: 33.1%
[38]
  viability, T/C: 29.5%
[39]
  viability, T/C: 21.9%
[40]
  viability, T/C: 28.1%
[41]
  viability, T/C: 13.1%
[42]
  viability, T/C: 27.3%
[43]
  viability, T/C: 4.05%
[44]
  viability, T/C: 4.95%
[45]
  viability, T/C: 5.87%
[46]
  viability, T/C: 7.24%
[47]
  viability, T/C: 4.35%
[48]
  viability, T/C: 11.5%
[49]
  viability, T/C: 20.8%
[50]
  viability, T/C: 19.9%
[51]
  viability, T/C: 11.3%
[52]
  viability, T/C: 15.1%
[53]
  viability, T/C: 6.28%
[54]
  viability, T/C: 5.54%
[55]
  viability, T/C: 61.9%
[56]
  viability, T/C: 36.3%
[57]
  viability, T/C: 22.1%
[58]
  viability, T/C: 59%
[59]
  viability, T/C: 46.6%
[60]
  viability, T/C: 34.6%
